Read-outs that look alike come from different tables or passages of the source.
How the values were obtained:
Format in all cases: binding
various enzymes [1] = target: T1, various enzymes (Homo sapiens, UniProt Q13873); settings: compound 1 uM
T1 sequence (Q13873 27-1038): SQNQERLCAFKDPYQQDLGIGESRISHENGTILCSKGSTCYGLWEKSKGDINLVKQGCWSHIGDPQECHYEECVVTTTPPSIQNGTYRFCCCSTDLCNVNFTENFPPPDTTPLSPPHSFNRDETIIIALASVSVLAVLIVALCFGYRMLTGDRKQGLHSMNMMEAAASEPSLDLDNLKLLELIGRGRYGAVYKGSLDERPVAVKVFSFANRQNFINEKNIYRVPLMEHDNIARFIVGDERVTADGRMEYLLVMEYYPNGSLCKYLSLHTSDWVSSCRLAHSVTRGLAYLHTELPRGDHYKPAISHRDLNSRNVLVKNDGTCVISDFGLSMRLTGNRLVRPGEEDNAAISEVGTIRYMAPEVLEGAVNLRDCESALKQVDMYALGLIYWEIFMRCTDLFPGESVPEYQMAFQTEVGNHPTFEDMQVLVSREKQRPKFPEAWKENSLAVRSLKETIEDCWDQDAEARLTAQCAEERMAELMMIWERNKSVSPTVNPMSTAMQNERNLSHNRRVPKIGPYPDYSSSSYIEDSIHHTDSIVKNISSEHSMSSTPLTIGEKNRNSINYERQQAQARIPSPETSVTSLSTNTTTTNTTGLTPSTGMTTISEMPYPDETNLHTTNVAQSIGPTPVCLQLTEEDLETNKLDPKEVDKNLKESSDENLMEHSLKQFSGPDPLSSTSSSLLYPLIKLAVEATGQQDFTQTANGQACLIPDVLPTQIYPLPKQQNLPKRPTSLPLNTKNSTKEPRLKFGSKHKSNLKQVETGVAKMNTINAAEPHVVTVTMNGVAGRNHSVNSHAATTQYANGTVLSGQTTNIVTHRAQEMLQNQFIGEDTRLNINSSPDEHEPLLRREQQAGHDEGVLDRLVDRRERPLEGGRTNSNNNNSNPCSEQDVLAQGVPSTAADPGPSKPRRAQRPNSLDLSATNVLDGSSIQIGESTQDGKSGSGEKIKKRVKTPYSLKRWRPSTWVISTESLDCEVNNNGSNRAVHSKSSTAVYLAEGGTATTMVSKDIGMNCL
Description: (§1) Ambit profiling was conducted in accordance with the manufacturer's instructions.

various enzymes [2] = target: various enzymes (Homo sapiens, UniProt P24941); settings: compound 1 uM
Description: as §1

various enzymes [3] = target: various enzymes (Homo sapiens, UniProt P27361); settings: compound 1 uM
Description: as §1

various enzymes [4] = target: various enzymes (Homo sapiens, UniProt P31152); settings: compound 1 uM
Description: as §1

various enzymes [5] = target: various enzymes (Homo sapiens, UniProt Q16566); settings: compound 1 uM
Description: as §1

various enzymes [6] = target: various enzymes (Homo sapiens, UniProt P22455); settings: compound 1 uM
Sequence of various enzymes (Homo sapiens, UniProt P22455) (P22455 22-802): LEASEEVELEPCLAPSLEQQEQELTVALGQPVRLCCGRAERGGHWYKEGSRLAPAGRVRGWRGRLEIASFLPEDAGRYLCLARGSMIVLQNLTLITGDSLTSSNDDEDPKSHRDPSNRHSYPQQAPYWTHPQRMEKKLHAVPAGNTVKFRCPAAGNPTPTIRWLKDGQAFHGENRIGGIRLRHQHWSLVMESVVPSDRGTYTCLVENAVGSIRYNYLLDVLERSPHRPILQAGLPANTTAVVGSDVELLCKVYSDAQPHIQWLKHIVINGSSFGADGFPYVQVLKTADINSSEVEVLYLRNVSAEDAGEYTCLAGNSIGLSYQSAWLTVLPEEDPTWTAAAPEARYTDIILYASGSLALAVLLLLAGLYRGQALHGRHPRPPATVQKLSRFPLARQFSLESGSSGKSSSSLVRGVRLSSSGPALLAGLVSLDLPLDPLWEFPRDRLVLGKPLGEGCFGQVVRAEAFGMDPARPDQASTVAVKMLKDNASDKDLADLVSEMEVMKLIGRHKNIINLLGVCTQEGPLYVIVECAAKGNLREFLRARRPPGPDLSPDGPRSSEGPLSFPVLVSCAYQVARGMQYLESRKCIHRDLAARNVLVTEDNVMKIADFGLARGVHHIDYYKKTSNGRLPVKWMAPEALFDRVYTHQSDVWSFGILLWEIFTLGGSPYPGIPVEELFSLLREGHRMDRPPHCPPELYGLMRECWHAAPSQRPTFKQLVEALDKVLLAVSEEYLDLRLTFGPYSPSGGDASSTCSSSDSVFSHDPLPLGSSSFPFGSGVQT
Description: as §1

various enzymes [7] = target: various enzymes (Homo sapiens, UniProt Q9UM73, C1156Y)
Description: as §1

various enzymes [8] = target: various enzymes (Homo sapiens, UniProt Q16659); settings: compound 1 uM
Sequence of various enzymes (Homo sapiens, UniProt Q16659) (Q16659 whole entry): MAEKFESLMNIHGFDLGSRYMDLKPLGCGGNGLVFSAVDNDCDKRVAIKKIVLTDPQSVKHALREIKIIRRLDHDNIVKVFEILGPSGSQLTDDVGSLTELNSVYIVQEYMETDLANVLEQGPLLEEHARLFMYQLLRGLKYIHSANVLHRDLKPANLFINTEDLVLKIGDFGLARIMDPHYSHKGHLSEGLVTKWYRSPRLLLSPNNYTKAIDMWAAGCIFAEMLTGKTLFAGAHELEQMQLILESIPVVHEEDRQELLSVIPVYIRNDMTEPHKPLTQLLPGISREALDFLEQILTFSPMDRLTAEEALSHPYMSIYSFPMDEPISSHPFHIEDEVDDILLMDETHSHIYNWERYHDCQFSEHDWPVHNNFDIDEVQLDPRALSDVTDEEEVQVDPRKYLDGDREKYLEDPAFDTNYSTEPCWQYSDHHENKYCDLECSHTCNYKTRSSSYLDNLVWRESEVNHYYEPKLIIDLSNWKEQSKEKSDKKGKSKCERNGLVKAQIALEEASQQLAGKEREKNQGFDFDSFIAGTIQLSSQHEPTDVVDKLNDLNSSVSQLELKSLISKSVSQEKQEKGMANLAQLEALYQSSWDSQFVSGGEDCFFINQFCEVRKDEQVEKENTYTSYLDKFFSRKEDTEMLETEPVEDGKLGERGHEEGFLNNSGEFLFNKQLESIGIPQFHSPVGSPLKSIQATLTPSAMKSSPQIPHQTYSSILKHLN
Description: as §1

various enzymes [9] = target: various enzymes (Homo sapiens, UniProt P51956); settings: compound 1 uM
Description: as §1

various enzymes [10] = target: various enzymes (Homo sapiens, UniProt Q8IVW4); settings: compound 1 uM
Sequence of various enzymes (Homo sapiens, UniProt Q8IVW4) (Q8IVW4 whole entry): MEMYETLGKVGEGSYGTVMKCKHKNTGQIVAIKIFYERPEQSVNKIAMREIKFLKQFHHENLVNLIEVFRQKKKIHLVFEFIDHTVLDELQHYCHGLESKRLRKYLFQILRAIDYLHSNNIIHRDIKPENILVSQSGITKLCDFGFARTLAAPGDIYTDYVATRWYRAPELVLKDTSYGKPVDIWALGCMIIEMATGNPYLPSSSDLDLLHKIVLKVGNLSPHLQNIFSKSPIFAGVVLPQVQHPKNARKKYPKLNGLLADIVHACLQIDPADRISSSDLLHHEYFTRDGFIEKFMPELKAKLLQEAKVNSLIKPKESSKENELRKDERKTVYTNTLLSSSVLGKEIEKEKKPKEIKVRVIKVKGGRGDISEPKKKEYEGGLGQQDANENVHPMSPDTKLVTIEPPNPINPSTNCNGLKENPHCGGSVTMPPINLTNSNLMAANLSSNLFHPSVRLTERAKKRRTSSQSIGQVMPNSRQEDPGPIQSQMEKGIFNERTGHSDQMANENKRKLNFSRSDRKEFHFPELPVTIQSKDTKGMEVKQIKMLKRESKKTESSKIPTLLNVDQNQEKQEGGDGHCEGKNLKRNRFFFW
Description: as §1

various enzymes [11] = target: various enzymes (Homo sapiens, UniProt P50750); settings: compound 1 uM
Description: as §1

various enzymes [12] = target: various enzymes (Homo sapiens, UniProt Q13131); settings: compound 1 uM
Sequence of various enzymes (Homo sapiens, UniProt Q13131) (Q13131 whole entry): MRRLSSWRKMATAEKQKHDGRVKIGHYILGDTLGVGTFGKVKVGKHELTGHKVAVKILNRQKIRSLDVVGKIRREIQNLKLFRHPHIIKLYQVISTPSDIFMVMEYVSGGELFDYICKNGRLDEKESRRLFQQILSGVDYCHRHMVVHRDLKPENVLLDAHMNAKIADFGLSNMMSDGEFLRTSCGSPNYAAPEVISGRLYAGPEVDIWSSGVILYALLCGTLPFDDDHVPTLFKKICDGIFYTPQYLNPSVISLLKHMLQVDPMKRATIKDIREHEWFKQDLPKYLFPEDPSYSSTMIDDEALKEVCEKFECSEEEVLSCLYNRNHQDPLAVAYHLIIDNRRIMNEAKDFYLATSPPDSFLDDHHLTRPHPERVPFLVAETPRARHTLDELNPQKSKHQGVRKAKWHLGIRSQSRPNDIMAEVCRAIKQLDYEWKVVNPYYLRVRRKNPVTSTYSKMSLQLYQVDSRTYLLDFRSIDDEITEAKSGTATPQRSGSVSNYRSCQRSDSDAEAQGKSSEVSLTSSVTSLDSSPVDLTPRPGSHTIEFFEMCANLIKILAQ
Description: as §1

various enzymes [13] = target: various enzymes (Homo sapiens, UniProt Q9UBE8); settings: compound 1 uM
Description: as §1

various enzymes [14] = target: various enzymes (Homo sapiens, UniProt P07949); settings: compound 1 uM
Description: as §1

various enzymes [15] = target: various enzymes (Homo sapiens, UniProt P80192); settings: compound 1 uM
Description: as §1

various enzymes [16] = target: various enzymes (Homo sapiens, UniProt P54762); settings: compound 1 uM
Description: as §1

various enzymes [17] = target: various enzymes (Homo sapiens, UniProt P78362); settings: compound 1 uM
Description: as §1

various enzymes [18] = target: various enzymes (Homo sapiens, UniProt Q9UM73, L1196M)
Description: as §1

various enzymes [19] = target: various enzymes (Homo sapiens, UniProt O94806); settings: compound 1 uM
Description: as §1

various enzymes [20] = target: various enzymes (Homo sapiens, UniProt O00141); settings: compound 1 uM
Description: as §1

various enzymes [21] = target: various enzymes (Homo sapiens, UniProt Q86Y07); settings: compound 1 uM
Sequence of various enzymes (Homo sapiens, UniProt Q86Y07) (Q86Y07 whole entry): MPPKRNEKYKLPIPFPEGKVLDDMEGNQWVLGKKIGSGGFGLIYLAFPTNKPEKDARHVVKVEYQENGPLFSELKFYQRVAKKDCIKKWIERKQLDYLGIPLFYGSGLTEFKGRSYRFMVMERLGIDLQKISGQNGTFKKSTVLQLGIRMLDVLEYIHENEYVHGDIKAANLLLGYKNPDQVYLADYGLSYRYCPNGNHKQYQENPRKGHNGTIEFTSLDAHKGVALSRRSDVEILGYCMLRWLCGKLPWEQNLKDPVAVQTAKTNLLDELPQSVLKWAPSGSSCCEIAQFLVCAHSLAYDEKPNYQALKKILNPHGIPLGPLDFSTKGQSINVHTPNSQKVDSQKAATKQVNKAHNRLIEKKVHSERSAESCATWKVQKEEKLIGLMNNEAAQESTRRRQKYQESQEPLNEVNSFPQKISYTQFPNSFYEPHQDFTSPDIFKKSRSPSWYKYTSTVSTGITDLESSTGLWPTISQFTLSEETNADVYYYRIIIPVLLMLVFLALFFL
Description: as §1

various enzymes [22] = target: various enzymes (Homo sapiens, UniProt O15146); settings: compound 1 uM
Sequence of various enzymes (Homo sapiens, UniProt O15146) (O15146 24-869): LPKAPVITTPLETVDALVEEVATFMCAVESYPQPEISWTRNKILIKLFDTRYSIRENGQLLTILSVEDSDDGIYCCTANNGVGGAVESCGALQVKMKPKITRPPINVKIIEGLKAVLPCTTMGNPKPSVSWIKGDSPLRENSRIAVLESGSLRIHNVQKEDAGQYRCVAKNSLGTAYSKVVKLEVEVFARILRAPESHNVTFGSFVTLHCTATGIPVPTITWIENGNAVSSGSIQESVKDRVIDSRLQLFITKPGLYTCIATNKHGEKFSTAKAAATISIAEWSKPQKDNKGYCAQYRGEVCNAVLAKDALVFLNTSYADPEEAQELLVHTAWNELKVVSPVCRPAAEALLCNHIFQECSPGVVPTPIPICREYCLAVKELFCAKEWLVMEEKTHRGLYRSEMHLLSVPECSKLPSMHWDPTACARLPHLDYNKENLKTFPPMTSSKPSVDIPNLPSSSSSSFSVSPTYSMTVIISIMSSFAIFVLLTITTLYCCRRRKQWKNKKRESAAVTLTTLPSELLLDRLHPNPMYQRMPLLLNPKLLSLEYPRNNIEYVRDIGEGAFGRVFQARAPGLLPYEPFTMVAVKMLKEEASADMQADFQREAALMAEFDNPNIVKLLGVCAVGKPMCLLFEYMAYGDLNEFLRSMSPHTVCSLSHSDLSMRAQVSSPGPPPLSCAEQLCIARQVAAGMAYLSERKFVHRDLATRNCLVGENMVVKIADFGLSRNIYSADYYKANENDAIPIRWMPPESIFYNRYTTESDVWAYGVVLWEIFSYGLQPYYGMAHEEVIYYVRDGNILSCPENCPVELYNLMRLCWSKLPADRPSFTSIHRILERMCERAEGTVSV
Description: as §1

various enzymes [23] = target: various enzymes (Homo sapiens, UniProt P31751); settings: compound 1 uM
Sequence of various enzymes (Homo sapiens, UniProt P31751) (P31751 whole entry): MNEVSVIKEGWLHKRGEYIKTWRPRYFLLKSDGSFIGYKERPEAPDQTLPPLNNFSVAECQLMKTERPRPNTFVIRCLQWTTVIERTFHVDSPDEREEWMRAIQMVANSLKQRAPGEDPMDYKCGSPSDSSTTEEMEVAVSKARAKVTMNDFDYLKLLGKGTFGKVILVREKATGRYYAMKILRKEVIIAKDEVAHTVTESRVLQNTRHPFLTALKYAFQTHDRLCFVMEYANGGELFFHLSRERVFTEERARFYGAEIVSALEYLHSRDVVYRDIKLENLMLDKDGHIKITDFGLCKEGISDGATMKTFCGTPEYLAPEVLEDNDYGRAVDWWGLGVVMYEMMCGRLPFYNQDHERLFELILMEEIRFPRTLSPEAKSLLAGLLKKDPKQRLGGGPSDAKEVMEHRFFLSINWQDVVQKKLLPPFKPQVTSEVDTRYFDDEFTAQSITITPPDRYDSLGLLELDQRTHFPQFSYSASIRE
Description: as §1

various enzymes [24] = target: various enzymes (Homo sapiens, UniProt P49760); settings: compound 1 uM
Sequence of various enzymes (Homo sapiens, UniProt P49760) (P49760 whole entry): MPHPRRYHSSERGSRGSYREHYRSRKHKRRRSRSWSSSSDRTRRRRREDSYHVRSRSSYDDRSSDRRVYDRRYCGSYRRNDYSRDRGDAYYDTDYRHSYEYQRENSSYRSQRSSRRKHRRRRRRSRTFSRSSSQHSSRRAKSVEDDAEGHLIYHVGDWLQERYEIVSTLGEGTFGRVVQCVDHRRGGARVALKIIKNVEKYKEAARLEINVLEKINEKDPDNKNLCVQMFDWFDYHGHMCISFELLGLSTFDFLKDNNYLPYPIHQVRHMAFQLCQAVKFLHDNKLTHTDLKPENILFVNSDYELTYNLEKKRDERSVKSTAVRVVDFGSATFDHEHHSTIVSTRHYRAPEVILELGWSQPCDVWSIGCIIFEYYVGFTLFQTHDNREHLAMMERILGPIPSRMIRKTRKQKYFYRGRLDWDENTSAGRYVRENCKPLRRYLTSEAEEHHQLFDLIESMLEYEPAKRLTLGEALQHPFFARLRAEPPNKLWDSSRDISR
Description: as §1

various enzymes [25] = target: various enzymes (Homo sapiens, UniProt Q96J92); settings: compound 1 uM
Description: as §1

various enzymes [26] = target: various enzymes (Homo sapiens, UniProt P00533, T790M)
Description: as §1

various enzymes [27] = target: various enzymes (Homo sapiens, UniProt O96013); settings: compound 1 uM
Description: as §1

various enzymes [28] = target: various enzymes (Homo sapiens, UniProt Q8IWQ3); settings: compound 1 uM
Description: as §1

various enzymes [29] = target: various enzymes (Homo sapiens, UniProt Q08345); settings: compound 1 uM
Description: as §1

various enzymes [30] = target: various enzymes (Homo sapiens, UniProt Q52WX2); settings: compound 1 uM
Description: as §1

various enzymes [31] = target: various enzymes (Homo sapiens, UniProt Q9UIK4); settings: compound 1 uM
Description: as §1

SMILES | Ambit profiling: BMPR2 (various enzymes [1]) | Ambit profiling: CDK2 (various enzymes [2]) | Ambit profiling: ERK1 (various enzymes [3]) | Ambit profiling: ERK4 (various enzymes [4]) | Ambit profiling: CAMK4 (various enzymes [5]) | Ambit profiling: FGFR4 (various enzymes [6]) | Ambit profiling: ERK3 (various enzymes [8]) | Ambit profiling: NEK3 (various enzymes [9]) | Ambit profiling: CDKL3 (various enzymes [10]) | Ambit profiling: CDK9 (various enzymes [11]) | Ambit profiling: AMPK-alpha1 (various enzymes [12]) | Ambit profiling: NLK (various enzymes [13]) | Ambit profiling: RET (various enzymes [14]) | Ambit profiling: MLK1 (various enzymes [15]) | Ambit profiling: EPHB1 (various enzymes [16]) | Ambit profiling: SRPK2 (various enzymes [17]) | Ambit profiling: PRKD3 (various enzymes [19]) | Ambit profiling: SGK (various enzymes [20]) | Ambit profiling: VRK2 (various enzymes [21]) | Ambit profiling: MUSK (various enzymes [22]) | other results
CC(C)N1Cc2nn(C)cc2-c2cnc3[nH]cc(c3c2)-c2cn(nc2C(F)(F)F)CCCC1=O [Compound 45, (Z)-5-isopropyl-31-methyl-13-(trifluoromethyl)-11H,21H,31H-5-aza-2(3,5)-pyrrolo[2,3-b]pyridina-1(4,1),3(4,3)-dipyrazolacyclononaphan-6-one] | 78 | 35 | 100 | 100 | 100 | 85 | 100 | 50 | 100 | 60 | 50 | 84 | 0.15 | 46 | 51 | 100 | 11 | 1.3 | 37 | 89 | Ambit profiling: ALK(C1156Y) (various enzymes [7]; compound 1 uM): 16; Ambit profiling: ALK(L1196M) (various enzymes [18]; compound 1 uM): 18; Ambit profiling: AKT2 (various enzymes [23]): 100; Ambit profiling: CLK2 (various enzymes [24]): 4.3; Ambit profiling: WNK4 (various enzymes [25]): 97; Ambit profiling: EGFR(T790M) (various enzymes [26]; compound 1 uM): 65; Ambit profiling: PAK4 (various enzymes [27]): 76; Ambit profiling: BRSK2 (various enzymes [28]): 64; Ambit profiling: DDR1 (various enzymes [29]): 0.15; Ambit profiling: SBK1 (various enzymes [30]): 100; Ambit profiling: DAPK2 (various enzymes [31]): 100
COc1c2c(nn1C)CN(C(C)C)C(=O)CCCn1cc(c(C(F)(F)F)n1)-c1c[nH]c3ncc-2cc13 [Compound 50, (Z)-5-isopropyl-35-methoxy-31-methyl-13-(trifluoromethyl)-11H,21H,31H-5-aza-2(3,5)-pyrrolo[2,3-b]pyridina-1(4,1),3(4,3)-dipyrazolacyclononaphan-6-one] | 89 | 62 | 95 | 82 | 100 | 79 | 69 | 51 | 80 | 47 | 90 | 84 | 0.1 | 28 | 48 | 74 | 15 | 6 | 20 | 90 | Ambit profiling: ALK(C1156Y) (various enzymes [7]): 26; Ambit profiling: ALK(L1196M) (various enzymes [18]): 12; Ambit profiling: AKT2 (various enzymes [23]): 86; Ambit profiling: CLK2 (various enzymes [24]): 11; Ambit profiling: WNK4 (various enzymes [25]): 100; Ambit profiling: EGFR(T790M) (various enzymes [26]): 32; Ambit profiling: PAK4 (various enzymes [27]): 91; Ambit profiling: BRSK2 (various enzymes [28]): 72; Ambit profiling: DDR1 (various enzymes [29]): 0.35; Ambit profiling: SBK1 (various enzymes [30]): 98; Ambit profiling: DAPK2 (various enzymes [31]): 67
